The values that follow come from paper PMC9250534, “Synthesis and direct assay of large macrocycle diversities by combinatorial late-stage modification at picomole scale” (Nature Communications, 2022).

Numbered stars: 1 amine (or outer) side, 2 acyl side, 3 side chain; on linkers, the order of the positions; unused ones are H or OH. Bridge positions count the residues as written; N and C are the ends. Square brackets hold non-standard residues; d marks the D form. Peptide text beside a SMILES is read from it. * marks the point of attachment. 2Thenoyl(5-Cl) = O=C(c1ccc(Cl)s1)*; Benzoyl(4-Cl) = O=C(c1ccc(Cl)cc1)*; Cysteamide = C(CS[*:3])N[*:1]; X1 = O=C(/C=C/c1ccccc1)*; Dap = NC[C@H](N)C(=O)O; Mpa = O=C(O)CCS

The assay deals with MDM2 (Homo sapiens, UniProt Q00987). Description: MDM2 binding screen: displacement of fluorescent p53 peptide probe FP53 (fluorescence polarization). The following applies: crude macrocycle reactions; for fraction fluorescent probe displaced, Screen: initial screen. The method, boiled down:
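Macrocycle reaction products at a final 10 µM were tested for displacement of a p53-based fluorescent peptide from human MDM2. Fluorescence anisotropy (ex 485/em 535 nm) was read once per macrocycle at 25 °C.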

MDM2, sequence (Q00987 whole entry): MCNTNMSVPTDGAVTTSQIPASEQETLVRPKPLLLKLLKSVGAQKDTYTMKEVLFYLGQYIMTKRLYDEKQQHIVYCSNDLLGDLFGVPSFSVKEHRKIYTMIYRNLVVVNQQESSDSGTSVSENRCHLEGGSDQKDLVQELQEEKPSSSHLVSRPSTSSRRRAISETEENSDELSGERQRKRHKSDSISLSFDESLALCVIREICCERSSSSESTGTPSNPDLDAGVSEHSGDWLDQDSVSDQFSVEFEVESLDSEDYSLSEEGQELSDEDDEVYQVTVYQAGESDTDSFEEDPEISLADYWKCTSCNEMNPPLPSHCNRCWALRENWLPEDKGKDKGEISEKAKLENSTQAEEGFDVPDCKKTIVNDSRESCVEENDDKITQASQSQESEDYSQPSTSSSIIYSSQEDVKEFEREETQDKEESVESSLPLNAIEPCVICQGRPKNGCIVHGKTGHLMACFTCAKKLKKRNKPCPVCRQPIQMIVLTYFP

In the case of `O=C1CCSSCCNC(=O)C2CN(C(=O)c3ccc(Cl)s3)CCN2C(=O)C2CCCN(C2)C(=O)C(Cc2c[nH]c3ccccc23)N1` (centres unmarked) [X W B4 D7 Acid 14], where the note is “Acid 14”, the “fraction fluorescent probe displaced, Screen” value is recorded as 0.34 and the “fraction fluorescent probe displaced, Replicate” value is 0.33.
As to `O=C1CCSSCCNC(=O)[C@H](CNC(=O)c2ccc(Cl)s2)NC(=O)c2cccc(c2)CNC(=O)[C@H](Cc2c[nH]c3ccccc23)N1` [X W B5 D3 Acid 14], under “Acid 14”, the “fraction fluorescent probe displaced, Screen” value worked out at 0.20 and the “fraction fluorescent probe displaced, Replicate” value stood at 0.30.
As to `O=C1CCSSCCNC(=O)[C@H](CNC(=O)c2ccc(Cl)cc2)NC(=O)c2cccc(c2)CNC(=O)[C@H](Cc2c[nH]c3ccccc23)N1` [X W B5 D3 Acid 25], where the note is “Acid 25”, the “fraction fluorescent probe displaced, Screen” value was 0.41 and the “fraction fluorescent probe displaced, Replicate” value was found to be 0.22.
In the case of `O=C(/C=C/c1ccccc1)NC[C@@H]1NC(=O)c2cccc(c2)CNC(=O)[C@H](Cc2c[nH]c3ccccc23)NC(=O)CCSSCCNC1=O` [X W B5 D3 Acid 91], under “Acid 91”, the “fraction fluorescent probe displaced, Screen” value was found to be 0.03 and the “fraction fluorescent probe displaced, Replicate” value stood at 0.07.
For `O=C1CCSSCCNC(=O)C2CC(NC(=O)c3ccc(Cl)s3)CN2C(=O)c2cccc(c2)CNC(=O)C(Cc2c[nH]c3ccccc23)N1` (centres unmarked) [X W B5 D5 Acid 14], under “Acid 14”, the “fraction fluorescent probe displaced, Screen” value was 0.14 and the “fraction fluorescent probe displaced, Replicate” value stood at 0.10.
With `O=C(C=Cc1ccccc1)NC1CC2C(=O)NCCSSCCC(=O)NC(Cc3c[nH]c4ccccc34)C(=O)NCc3cccc(c3)C(=O)N2C1` (centres unmarked) [X W B5 D5 Acid 91], where the note is “Acid 91”, the “fraction fluorescent probe displaced, Screen” value is on record as 0.08 and the “fraction fluorescent probe displaced, Replicate” value worked out at 0.17.
In the case of `O=C1CCSSCCNC(=O)C2(CCN(C(=O)c3ccc(Cl)s3)CC2)NC(=O)c2cccc(c2)CNC(=O)[C@H](Cc2c[nH]c3ccccc23)N1` [X W B5 D6 Acid 14], for the setting “Acid 14”, the “fraction fluorescent probe displaced, Screen” value turned out to be 0.14 and the “fraction fluorescent probe displaced, Replicate” value amounted to 0.17.
For `O=C1CCSSCCNC(=O)C2CN(C(=O)c3ccc(Cl)cc3)CCN2C(=O)c2cccc(c2)CNC(=O)C(Cc2c[nH]c3ccccc23)N1` (centres unmarked) [X W B5 D7 Acid 25], where the note is “Acid 25”, the “fraction fluorescent probe displaced, Screen” value was found to be 0.0244 and the “fraction fluorescent probe displaced, Replicate” value was determined as 0.12.
In the case of `O=C1CCSSCCNC(=O)C2CN(C(=O)C=Cc3ccccc3)CCN2C(=O)c2cccc(c2)CNC(=O)C(Cc2c[nH]c3ccccc23)N1` (centres unmarked) [X W B5 D7 Acid 91], under “Acid 91”, the “fraction fluorescent probe displaced, Screen” value is 0.16 and the “fraction fluorescent probe displaced, Replicate” value was 0.0168.
Take `O=C1CCSSCCNC(=O)[C@@H]2CCCN2C(=O)[C@H](CNC(=O)c2ccc(Cl)s2)NC(=O)[C@H](Cc2c[nH]c3ccccc23)N1` [X W D3 B1 Acid 14] ([Mpa]W[Dap](2Thenoyl(5-Cl))P-Cysteamide; disulfide 1-C): under “Acid 14”, the “fraction fluorescent probe displaced, Screen” value was 0.28 and the “fraction fluorescent probe displaced, Replicate” value is given as 0.28.
Regarding `O=C1CCSSCCNC(=O)[C@@H]2CCCN2C(=O)[C@H](CNC(=O)c2ccc(Cl)cc2)NC(=O)[C@H](Cc2c[nH]c3ccccc23)N1` [X W D3 B1 Acid 25] ([Mpa]W[Dap](Benzoyl(4-Cl))P-Cysteamide; disulfide 1-C), under “Acid 25”, the “fraction fluorescent probe displaced, Screen” value is listed as 0.32 and the “fraction fluorescent probe displaced, Replicate” value is recorded as 0.30.
As for `O=C(/C=C/c1ccccc1)NC[C@@H]1NC(=O)[C@H](Cc2c[nH]c3ccccc23)NC(=O)CCSSCCNC(=O)[C@@H]2CCCN2C1=O` [X W D3 B1 Acid 91] ([Mpa]W[Dap](X1)P-Cysteamide; disulfide 1-C), under “Acid 91”, the “fraction fluorescent probe displaced, Screen” value was 0.11 and the “fraction fluorescent probe displaced, Replicate” value is -0.00827.
Turning to `O=C(/C=C/c1ccccc1)NC[C@@H]1NC(=O)[C@H](Cc2c[nH]c3ccccc23)NC(=O)CCSSCCNC(=O)CCNC1=O` [X W D3 B2 Acid 91], for the setting “Acid 91”, the “fraction fluorescent probe displaced, Screen” value is listed as 0.08 and the “fraction fluorescent probe displaced, Replicate” value is reported as 0.04.
